Source: patent publication US20240425496A1, “AZETIDINYL PYRIMIDINES AND USES THEREOF” (Aerie Pharmaceuticals, Inc., priority 2021, published 2024)

Tests used:
Format in all cases: biochemical
JAK2 = JAK2 (Homo sapiens (Human), UniProt O60674); assay: JAK kinase assay (KINASE-GLO luminescent), JAK2 enzyme; details: JAK2 enzyme 10 nM, Abl peptide substrate
Procedure: All compounds were initially prepared as 10 mM stocks in anhydrous dimethylsulfoxide (DMSO). A 20 μL aliquot of the 10 mM solutions was transferred to individual wells in column 1 of a 96-well polypropylene microtiter plate (Corning #3363) and diluted with DMSO to give a final compound concentration of 4 mM. Test compounds were then serially diluted 1:5 in DMSO for an 11-point concentration response and further diluted in the assay buffer bringing all compound concentrations to a final range of 100 μM to […] in 2.5% DMSO. The assay was performed in white 96-well, flat-bottom, half-area, non-binding assay plate (Corning #3642) in assay buffer consisting of 20 mM HEPES (pH 7.5), 10 mM MgCl2*6H2O, 100 μM sodium orthovanadate, 0.05% CHAPS and 0.1% bovine serum albumin. A 10 μL aliquot of compound from each well of the intermediate dilution plate and 20 μL of a 2× substrate/enzyme solution containing acceptor substrate (800 nM RSK2 peptide […] (SEQ ID NO: 1)), ROCK2 enzyme (10 nM), or ROCK1 enzyme, and 1,4-Dithiothreitol (DTT, 2 uM) were added to all wells. The reaction was initiated by the addition of 10 μL of 4× stock solution ATP (2 μM). Reactions were thoroughly mixed manually, covered, and allowed to incubate at room temperature for 75 min. Protein kinase activity was quantitated using Promega's KINASE-GLO™ luminescent Kinase Assay Kit according to the manufacturer's directions. ATP concentrations remaining in Test wells following the termination of the enzymatic reaction were compared against control wells containing equivalent amounts of DMSO containing no inhibitor (CTRL). […] Percent of Control (POC) values were determined for each concentration of compound tested according to the equation: […]
IC50 values were calculated using the following 4-parameter logistic curve-fitting algorithm:
Compounds were prepared in the exact same manner as described in the ROCK Kinase Assay with the exception to the substrate and enzyme. […]

JAK1 = JAK1 (Homo sapiens (Human), UniProt P23458); assay: JAK kinase assay (KINASE-GLO luminescent), JAK1 enzyme; details: JAK1 enzyme 10 nM, Abl peptide substrate
Procedure, shortened: (§1)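 Kinase-Glo luminescence measures ATP remaining after 75 min at room temperature; ATP 2 μM in 4× stock. 11-point 1:5 dilutions, 2.5% DMSO final. Percent of DMSO control per concentration, IC50 by 4-parameter logistic fit.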

TYK2 = TYK2 (Homo sapiens (Human), UniProt P29597); assay: JAK kinase assay (KINASE-GLO luminescent), TYK2 enzyme; details: TYK2 enzyme 10 nM, Abl peptide substrate
Procedure, shortened: as §1

TYK2, sequence (P29597 whole entry, species assumed): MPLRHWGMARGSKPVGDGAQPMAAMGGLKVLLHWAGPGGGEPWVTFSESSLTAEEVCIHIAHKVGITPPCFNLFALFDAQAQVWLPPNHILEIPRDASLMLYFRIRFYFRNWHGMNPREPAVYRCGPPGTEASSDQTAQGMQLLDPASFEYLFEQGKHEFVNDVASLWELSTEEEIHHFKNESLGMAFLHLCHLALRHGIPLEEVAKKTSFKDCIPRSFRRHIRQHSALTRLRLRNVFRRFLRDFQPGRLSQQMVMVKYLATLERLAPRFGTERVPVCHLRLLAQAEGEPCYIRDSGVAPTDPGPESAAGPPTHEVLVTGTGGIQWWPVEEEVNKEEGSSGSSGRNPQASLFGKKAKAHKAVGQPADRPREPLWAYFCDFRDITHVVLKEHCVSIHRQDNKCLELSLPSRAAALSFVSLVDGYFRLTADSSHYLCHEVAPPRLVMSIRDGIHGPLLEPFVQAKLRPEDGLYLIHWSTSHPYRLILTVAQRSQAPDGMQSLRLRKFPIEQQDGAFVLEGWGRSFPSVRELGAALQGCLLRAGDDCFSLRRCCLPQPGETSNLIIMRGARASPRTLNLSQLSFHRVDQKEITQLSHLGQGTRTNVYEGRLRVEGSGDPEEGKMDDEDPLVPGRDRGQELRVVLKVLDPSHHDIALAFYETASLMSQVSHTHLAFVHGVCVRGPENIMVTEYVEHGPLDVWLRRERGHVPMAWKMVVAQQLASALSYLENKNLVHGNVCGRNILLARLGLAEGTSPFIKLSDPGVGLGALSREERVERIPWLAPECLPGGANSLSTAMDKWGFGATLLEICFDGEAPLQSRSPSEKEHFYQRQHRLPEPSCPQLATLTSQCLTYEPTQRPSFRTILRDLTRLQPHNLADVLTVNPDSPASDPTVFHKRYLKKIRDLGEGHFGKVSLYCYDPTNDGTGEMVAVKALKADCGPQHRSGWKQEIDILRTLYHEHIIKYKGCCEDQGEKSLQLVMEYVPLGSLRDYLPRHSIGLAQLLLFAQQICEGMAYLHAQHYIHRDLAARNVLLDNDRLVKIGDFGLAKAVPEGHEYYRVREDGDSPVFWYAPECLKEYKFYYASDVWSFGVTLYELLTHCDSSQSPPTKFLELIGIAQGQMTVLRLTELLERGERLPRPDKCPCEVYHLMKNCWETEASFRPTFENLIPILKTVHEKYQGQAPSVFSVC
JAK1, sequence (P23458 whole entry, species assumed): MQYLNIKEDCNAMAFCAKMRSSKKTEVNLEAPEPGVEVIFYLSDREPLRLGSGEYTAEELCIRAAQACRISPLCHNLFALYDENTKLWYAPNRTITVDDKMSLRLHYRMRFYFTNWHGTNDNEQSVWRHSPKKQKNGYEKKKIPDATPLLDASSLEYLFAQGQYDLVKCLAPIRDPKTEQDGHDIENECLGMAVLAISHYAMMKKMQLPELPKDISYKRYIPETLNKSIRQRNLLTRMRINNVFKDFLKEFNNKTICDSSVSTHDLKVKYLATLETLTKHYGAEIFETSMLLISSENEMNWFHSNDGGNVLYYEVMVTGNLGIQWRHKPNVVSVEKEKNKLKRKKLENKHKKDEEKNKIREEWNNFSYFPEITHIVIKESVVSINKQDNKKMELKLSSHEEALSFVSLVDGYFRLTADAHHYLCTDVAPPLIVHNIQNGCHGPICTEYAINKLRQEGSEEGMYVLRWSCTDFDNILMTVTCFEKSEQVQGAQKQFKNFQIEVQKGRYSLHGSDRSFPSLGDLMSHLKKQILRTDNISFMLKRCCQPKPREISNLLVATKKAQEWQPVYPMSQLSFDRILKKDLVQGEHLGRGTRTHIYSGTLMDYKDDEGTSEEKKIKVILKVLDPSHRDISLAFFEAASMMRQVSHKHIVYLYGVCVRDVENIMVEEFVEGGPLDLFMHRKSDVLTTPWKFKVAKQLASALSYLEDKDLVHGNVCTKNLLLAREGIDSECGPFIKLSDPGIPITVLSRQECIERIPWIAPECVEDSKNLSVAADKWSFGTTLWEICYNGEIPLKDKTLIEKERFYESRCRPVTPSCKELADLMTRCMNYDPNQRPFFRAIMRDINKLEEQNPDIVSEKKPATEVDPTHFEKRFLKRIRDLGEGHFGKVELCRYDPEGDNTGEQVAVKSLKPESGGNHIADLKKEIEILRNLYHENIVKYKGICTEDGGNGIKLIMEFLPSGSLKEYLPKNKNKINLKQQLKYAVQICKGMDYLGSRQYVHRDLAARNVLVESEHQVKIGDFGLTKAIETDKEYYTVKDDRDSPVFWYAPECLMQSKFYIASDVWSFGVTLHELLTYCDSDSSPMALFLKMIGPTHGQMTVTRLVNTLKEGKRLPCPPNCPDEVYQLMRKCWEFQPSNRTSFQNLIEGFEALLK
JAK2, sequence (O60674 whole entry, species assumed): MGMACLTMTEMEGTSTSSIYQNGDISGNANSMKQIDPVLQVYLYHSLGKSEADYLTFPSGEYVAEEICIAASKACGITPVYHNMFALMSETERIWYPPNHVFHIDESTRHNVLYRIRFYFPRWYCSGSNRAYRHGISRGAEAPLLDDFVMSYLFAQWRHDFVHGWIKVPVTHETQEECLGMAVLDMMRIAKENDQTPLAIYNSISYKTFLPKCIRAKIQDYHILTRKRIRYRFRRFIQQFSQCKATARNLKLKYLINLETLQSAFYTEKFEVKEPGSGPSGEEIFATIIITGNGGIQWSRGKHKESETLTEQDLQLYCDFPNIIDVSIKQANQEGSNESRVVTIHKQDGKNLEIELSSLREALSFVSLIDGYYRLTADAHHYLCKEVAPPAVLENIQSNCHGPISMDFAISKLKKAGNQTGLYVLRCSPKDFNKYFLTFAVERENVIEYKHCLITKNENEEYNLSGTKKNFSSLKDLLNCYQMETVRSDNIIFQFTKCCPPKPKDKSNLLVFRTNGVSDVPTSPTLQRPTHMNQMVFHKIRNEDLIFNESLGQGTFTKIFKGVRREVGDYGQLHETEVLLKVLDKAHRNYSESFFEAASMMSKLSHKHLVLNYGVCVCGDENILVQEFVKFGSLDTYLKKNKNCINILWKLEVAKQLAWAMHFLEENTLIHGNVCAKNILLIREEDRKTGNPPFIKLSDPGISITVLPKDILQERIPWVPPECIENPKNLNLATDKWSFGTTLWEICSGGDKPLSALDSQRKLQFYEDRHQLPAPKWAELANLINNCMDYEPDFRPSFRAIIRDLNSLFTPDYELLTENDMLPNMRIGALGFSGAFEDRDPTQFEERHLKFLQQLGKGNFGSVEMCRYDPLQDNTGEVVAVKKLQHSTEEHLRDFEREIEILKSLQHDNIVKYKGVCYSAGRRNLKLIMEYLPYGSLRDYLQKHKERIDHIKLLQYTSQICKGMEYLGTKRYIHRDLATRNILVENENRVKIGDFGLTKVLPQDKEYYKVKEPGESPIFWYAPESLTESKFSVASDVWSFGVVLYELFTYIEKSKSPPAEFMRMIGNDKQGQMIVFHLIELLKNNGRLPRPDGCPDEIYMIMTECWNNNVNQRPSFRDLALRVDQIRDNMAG

Row | IC50 (JAK2) [nM] | IC50 (JAK1) [nM] | IC50 (TYK2) [nM] | SMILES
1 | < 50 |  |  | Cc1cc(Nc2ncc(C)c(N3CC(C#N)C3)n2)sn1 [E7]
2 |  | < 100 | < 100 | Cc1cnc(Nc2ccc(N3CCOCC3)nc2)nc1N1CC(CCC#N)C1 [E216-S]
3 |  | < 50 | < 50 | Cc1cnc(Nc2cccnc2)nc1N1CC(CC#N)(N2CCN3CCCC[C@H]3C2)C1 [E216-T]
4 |  | < 100 | < 50 | Cc1cnc(Nc2ccccc2)nc1N1CC(CC#N)(N2CCN(C)CC2)C1 [E216-V]
5 |  | < 10 | < 10 | Cc1cnc(Nc2ccc3c(c2)CN(C)C3)nc1N1CC(CC#N)(N2CCN3C[C@H](F)C[C@H]3C2)C1 [E216]
6 |  | < 5 | < 10 | Cc1cnc(Nc2cnn(C)c2)nc1C1CC(C)(NC(=O)[C@@H]2CC2(F)F)C1 (some centres unmarked) [E279]
7 |  | < 400 | < 400 | Cc1cc(Nc2ncc(C)c(N3CC(C)(CNC(=O)C4CN(C)C4)C3)n2)sn1 [E280]
8 |  | < 100 | < 50 | Cc1cc(Nc2ncc(C)c(N3CC(CC#N)(NC(=O)Cc4cccnc4)C3)n2)sn1 [E281]
9 |  | < 100 | < 100 | Cc1cc(Nc2ncc(C)c(N3CC(C)(CNC(=O)C4CN(C(=O)OC(C)(C)C)CC4(F)F)C3)n2)sn1 (centres unmarked) [E283]
10 |  | < 100 | < 200 | Cc1cc(Nc2ncc(C)c(N3CC(C)(CNC(=O)C4CCN(C(=O)OC(C)(C)C)CC4(F)F)C3)n2)sn1 (centres unmarked) [E284]
11 |  | < 100 | < 150 | Cc1cc(Nc2ncc(C)c(N3CC(C)(CNC(=O)C4CCNCC4(F)F)C3)n2)sn1 (centres unmarked) [E285]
12 |  | < 50 | < 50 | Cc1cc(Nc2ncc(C)c(N3CC(C)(CNC(=O)C4CNCC4(F)F)C3)n2)sn1 (centres unmarked) [E286]
13 |  | < 50 | < 50 | COc1ccc(CNC2(CC#N)CN(c3nc(Nc4cc(C)ns4)ncc3C)C2)cc1 [E288, 2-(3-((4-methoxybenzyl)amino)-1-(5-methyl-2-((3-methylisothiazol-5-yl)amino)pyrimidin-4-yl)azetidin-3-yl)acetonitrile]
14 |  | < 150 | < 100 | Cc1cc(Nc2ncc(C)c(N3CC(N)(CC#N)C3)n2)sn1 [E289, 2-(3-amino-1-(5-methyl-2-((3-methylisothiazol-5-yl)amino)pyrimidin-4-yl)azetidin-3-yl)acetonitrile]
15 |  | < 10 | < 10 | Cc1cc(Nc2ncc(C)c(N3CC(CC#N)(NC(=O)[C@@H]4CC4(F)F)C3)n2)sn1 [E290, (S)—N-(3-(cyanomethyl)-1-(5-methyl-2-((3-methylisothiazol-5-yl)amino)pyrimidin-4-yl)azetidin-3-yl)-2,2-difluorocyclopropane-1-carboxamide]
16 |  | < 20 | < 10 | Cc1cc(Nc2ncc(C)c(N3CC(CC#N)(NS(C)(=O)=O)C3)n2)sn1 [E291, N-(3-(cyanomethyl)-1-(5-methyl-2-((3-methylisothiazol-5-yl)amino)pyrimidin-4-yl)azetidin-3-yl)methanesulfonamide]
17 |  | < 5000 | < 1000 | Cc1cc(N(c2ncc(C)c(N3CC(CC#N)(NS(C)(=O)=O)C3)n2)S(C)(=O)=O)sn1 [E292]
18 |  | < 20 | < 20 | Cc1cc(Nc2ncc(C)c(N3CC(CC#N)(NC(=O)NCC(F)(F)F)C3)n2)sn1 [E293, 1-(3-(cyanomethyl)-1-(5-methyl-2-((3-methylisothiazol-5-yl)amino)pyrimidin-4-yl)azetidin-3-yl)-3-(2,2,2-trifluoroethyl)urea]
19 |  | < 20 | < 10 | Cc1cc(Nc2ncc(C)c(N3CC(CC#N)(NCc4ccc(F)cc4F)C3)n2)sn1 [E295, 2-(3-((2,4-difluorobenzyl)amino)-1-(5-methyl-2-((3-methylisothiazol-5-yl)amino)pyrimidin-4-yl)azetidin-3-yl)acetonitrile]
20 |  | < 20 | < 20 | Cc1cc(Nc2ncc(C)c(N3CC(CC#N)(NC(=O)c4ccccn4)C3)n2)sn1 [E296]
21 |  | < 50 | < 20 | Cc1cc(Nc2ncc(C)c(N3CC(CC#N)(NC(=O)C4CCCC4)C3)n2)sn1 [E297]
22 |  | < 50 | < 50 | Cc1cc(Nc2ncc(C)c(N3CC(CC#N)(NC(=O)c4ccncc4)C3)n2)sn1 [E298]
23 |  | < 20 | < 20 | Cc1cc(Nc2ncc(C)c(N3CC(CC#N)(NC(=O)Cc4ccccc4F)C3)n2)sn1 [E300]
24 |  | < 50 | < 20 | CCS(=O)(=O)NC1(CC#N)CN(c2nc(Nc3cc(C)ns3)ncc2C)C1 [E301]
25 |  | < 5000 | < 1000 | CCS(=O)(=O)NC1(CC#N)CN(c2nc(N(c3cc(C)ns3)S(=O)(=O)CC)ncc2C)C1 [E302]
26 |  | < 20 | < 30 | Cc1cc(Nc2ncc(C)c(N3CC(CC#N)(NC(=O)c4cccnc4)C3)n2)sn1 [E303]

Row | IC50 (JAK2) [nM] | IC50 (JAK1) [nM] | IC50 (TYK2) [nM] | SMILES
27 |  | < 10 | < 10 | Cc1cc(Nc2ncc(C)c(N3CC(CC#N)(NC(=O)c4cccc(F)c4)C3)n2)sn1 [E304]
28 |  | > 1500 | > 2000 | Cc1cnc(Nc2cnn(C)c2)nc1N1CC(CC#N)(N[C@H]2CC[C@H](NC(=O)OC(C)(C)C)C2)C1 [E305]
29 |  | < 120 | < 60 | Cc1cnc(Nc2cnn(C)c2)nc1N1CC(CC#N)(N[C@H]2CC[C@H](NS(C)(=O)=O)C2)C1 [E306]
30 |  | < 20 | < 100 | Cc1cnc(Nc2cnn(C)c2)nc1N1CC(C)(NC(=O)c2cccc(F)c2)C1 [E307]
31 |  | < 100 | < 50 | Cc1cnc(Nc2ccc(CN(C)C)cc2)nc1N1CC(C)(NC(=O)c2cccc(F)c2)C1 [E308]
32 |  | < 10 | < 20 | Cc1cc(Nc2ncc(C)c(N3CC(C)(NC(=O)c4cccc(F)c4)C3)n2)sn1 [E309]
33 |  | < 20 | < 50 | Cc1cnc(Nc2cccc(CN(C)C)c2)nc1N1CC(C)(NC(=O)c2cccc(F)c2)C1 [E310]
34 |  | < 50 | < 50 | Cc1cnc(Nc2ccc(N3CCOCC3)cc2)nc1N1CC(C)(NC(=O)c2cccc(F)c2)C1 [E311]
35 |  | < 10 | < 10 | Cc1cc(Nc2ncc(C)c(N3CC(CC#N)(NC(=O)c4cccc(F)c4F)C3)n2)sn1 [E312]
36 |  | < 20 | < 50 | Cc1cc(Nc2ncc(C)c(N3CC(CC#N)(NC(=O)c4ccc(F)c(F)c4)C3)n2)sn1 [E313]
37 |  | < 10 | < 10 | Cc1cc(Nc2ncc(C)c(N3CC(CC#N)(NC(=O)c4cccc(Cl)c4)C3)n2)sn1 [E314]
38 |  | < 10 | < 20 | Cc1cc(Nc2ncc(C)c(N3CC(CC#N)(NC(=O)c4cccc(C(F)(F)F)c4)C3)n2)sn1 [E315]
39 |  | < 30 | < 20 | Cc1cc(Nc2ncc(C)c(N3CC(CC#N)(NC(=O)c4cc(F)cc(F)c4C)C3)n2)sn1 [E317]
40 |  | < 10 | < 10 | CCC1(NC(=O)c2cccc(F)c2)CN(c2nc(Nc3cc(C)ns3)ncc2C)C1 [E318B]
41 |  | < 10 | < 50 | CCC1(NC(=O)c2cccc(F)c2)CN(c2nc(Nc3cnn(C)c3)ncc2C)C1 [E318C]
42 |  | < 50 | < 30 | Cc1cc(Nc2ncc(C)c(N3CC(CC#N)(NC(=O)c4cccc(F)c4C)C3)n2)sn1 [E318]
43 |  | < 10 | < 10 | Cc1cc(Nc2ncc(C)c(N3CC(CC#N)(NCc4cccc(Cl)c4)C3)n2)sn1 [E350]
44 |  | < 20 | < 50 | Cc1cnc(Nc2cnn(C)c2)nc1N1CC(CC#N)(NCc2cccc(Cl)c2)C1 [E351]
45 |  | < 100 | < 50 | Cc1cc(Nc2ncc(C)c(N3CC(CC#N)(NC(C)c4cccc(F)c4)C3)n2)sn1 (centres unmarked) [E352]
46 |  | < 20 | < 50 | Cc1cc(Nc2ncc(C)c(N3CC(CC#N)(NC(=O)c4cncc(F)c4)C3)n2)sn1 [E353]
47 |  | < 50 | < 50 | Cc1cc(Nc2ncc(C)c(N3CC(CC#N)(NC(=O)C4CCCCC4(F)F)C3)n2)sn1 (centres unmarked) [E354]
48 |  | < 10 | < 10 | Cc1cc(Nc2ncc(C)c(N3CC(CC#N)(NC(=O)C4CCCC(F)(F)C4)C3)n2)sn1 (centres unmarked) [E356]
49 |  | < 20 | < 10 | Cc1cc(Nc2ncc(C)c(N3CC(CC#N)(NCC4CC4(F)F)C3)n2)sn1 (centres unmarked) [E357]
50 |  | < 10 | < 10 | Cc1cc(Nc2ncc(C)c(N3CC(CC#N)(NCC4CCC(F)(F)C4)C3)n2)sn1 (centres unmarked) [E358]
51 |  | < 10 | < 10 | Cc1cc(Nc2ncc(C)c(N3CC(CC#N)(NCC4CCC(F)C4)C3)n2)sn1 (centres unmarked) [E359]
